Data taken from article PMC11500008, “Novel quinazolin-4-one based derivatives bearing 1,2,3-triazole and glycoside moieties as potential cytotoxic agents through dual EGFR and VEGFR-2 inhibitory activity” (Scientific Reports, 2024).
Where “and” joins values, the source holds several entries; their conditions need not be identical. Equal values may be shown once. Read-outs that look alike come from different tables or passages of the source.

Tests used:
MCF-7 cell line [1] = system: MCF-7 cell line; parameters: method as in PMID 37453330; conditions: cellular activity; read-out: IC50 against MCF-7 cell line; cited from earlier work
HCT-116 cell line = assay: MTT cytotoxicity assay, HCT-116; assay type: cell-based; conditions: Homo sapiens; HCT-116 colorectal cancer cells; 48 h incubation; mean of three values; read-out: IC50 (mean±SD) HCT-116
From the text: (§1) The recently incorporated quinazolinone-based targets 1–4, 6–13 underwent evaluation for their cytotoxic effects with in vitro employing MTT technique, according to the procedure that has been published[48]–[50], utilizing human fibroblast-derived BJ-1 normal cell line, and human cancer liver HepG-2, breast MCF-7, and colon HCT-116 cell lines. These cell lines were purchased from Karolinska Center, Department of Oncology and Pathology, Karolinska Institute and Hospital, Stockholm, Sweden, There were further details in the supplemental file.
(§2) The cell lines were obtained from Karolinska Center, Department of Oncology and Pathology, Karolinska Institute and Hospital, Stockholm, Sweden as follows: human liver HepG-2, breast MCF-7, and colorectal HCT-116 cancer cell lines and human fibroblast-derived BJ-1 normal cell line. Exponentially, cells were placed in 10^4 cells/ well for 24 h, and then add fresh medium which containing different concentration of the tested sample. Serial two-fold dilution of the tested sample were added using a multichannel pipette. Moreover, all cells were cultivated at 37 °C, 5% CO2 and 95% humidity. Also, incubation of control cells occurred at 37 °C. However, after incubation for 24 h different concentrations of sample (25, 12.5, 6.25 and 3.125 µM) were added and continued the incubation for 48 h, then, add the crystal violet solution 1% to each well for 0.5 h to examine viable cells. Rinse the wells using water until no stain. After that, add 30% glacial acetic acid to all wells with shaking plates on Microplate reader (TECAN, Inc.) to measure the absorbance, using a test wavelength of 490 nm. Besides, compare the treated samples with the control cell. The cytotoxicity was estimated by IC50 in (μM), the concentration that inhibits 50% of growth of cancer cell.

MCF-7 cell line [2] = assay: MTT cytotoxicity assay, MCF-7; assay type: cell-based; conditions: Homo sapiens, MCF7; MCF-7 breast cancer cells; 48 h incubation; mean of three values; read-out: IC50 (mean±SD) MCF-7
From the text: as §1, §2

Bax = Bax level in HCT-116 cells; assay type: cell-based, human
From the text: (§3) The methods previously described for the appealing quinazolinone-1,2,3-triazole glycoside 13 was used to clearly show the levels of p53, Bax, Bcl-2, and in HCT-116 cells.
(§4) The levels of the apoptotic marker Bax and anti-apoptotic marker Bcl-2 were estimated using BIO RAD iScript TM One-Step RT-PCR kit with SYBR® Green. The procedure of the used kit was done according to the manufacturer’s instructions.

HCT-116 cells [3] = assay: Apoptosis analysis by annexin V-FITC/PI flow cytometry; assay type: cell-based, human; conditions: 5.40 µM, 24 h
Protocol: (§5) The most powerful cytotoxic derivative, quinazolinone-1,2,3-triazole glycoside 13, underwent 24-hour treatment at a dose of 5.40 µM to find out if it caused cell death by the apoptotic pathway in HCT-116 cells. Using annexin-V labeling, flow cytometry was employed to further analyze the cells (Figs. 4, 5 and 6).
(§6) The examination of apoptosis and the interpretation of the cell cycle were described[37] utilizing flow cytometry. HCT-116 cells were treated with quinacolinone-1,2,3-triazole glycoside 13 for a full day, and after that, the cells were cultured at 37 °C. There were more details added to supporting documentation .
(§7) Cell cycle analysis and apoptosis study were carried out using flow cytometry. HCT-116 cells were seeded at 8×10^4 and incubated at 37°C in 5% CO2 overnight. After treatment with the tested compound 10 for 24 h, cell pellets were collected and centrifuged (300 g, 5 min). For cell cycle analysis cell pellets were fixed with 70% ethanol on ice for 15 min and collected again. The pellets were incubated with propidium iodide (PI) staining solution at room temperature for 1 h and analyzed by a Gallios flow cytometer (Beckman Coulter, Brea, CA, USA). Apoptosis detection was carried out by FITC AnnexinV/PI commercial kit (Becton Dickenson, Franklin Lakes, NJ, USA) following the manufacturer protocol. The samples were analyzed by fluorescence-activated cell sorting (FACS) with a Gallios flow cytometer (Beckman Coulter, Brea, CA, USA) within 1 h after staining. Data were analyzed using Kaluza v 1.2 (Beckman Coulter).

HCT-116 cells [4] = assay: Cell cycle analysis by flow cytometry (PI); assay type: cell-based, human
Protocol: as §5, §6, §7

VEGFR-2 = VEGFR-2 (Homo sapiens, UniProt P35968); assay: In vitro VEGFR-2 inhibition assay (ELISA); conditions: read-out: IC50 (mean ± SD) VEGFR-2; average of three values
p53 = p53 level in HCT-116 cells (ELISA); assay type: cell-based, human
Protocol: as §3
Human p53 present in HCT-116 cells was determined; using Human p53 ELISA-Kit (CS0070 Sigma) read using spectrophotometer at 450 nm against untreated control cells (negative control) applying the standard protocols of the manufacturers. The samples or standard having human p53 bind to antibodies adsorbed to the microwells. Addition of biotin-conjugated was followed by incubation and addition of dispense of unbound biotin-conjugated streptavidin HRP. Then, the reaction was terminated by adding acid, and the absorbance was measured at 450 nm.

BJ-1 normal cell line = assay: MTT cytotoxicity assay, normal BJ-1 fibroblasts (safety profile); assay type: cell-based; conditions: Homo sapiens; BJ-1 normal fibroblast-derived cells; 48 h incubation; mean of three values; read-out: IC50 (mean±SD) BJ-1
Protocol: […]. The safety profiles of all derivatives were assessed through cytotoxic evaluation using human fibroblast-derived BJ-1 normal cell lines. […].
as §1, §2

Bcl-2 = Bcl-2 level in HCT-116 cells; assay type: cell-based, human
From the text: as §3, §4

HepG-2 cell line = assay: MTT cytotoxicity assay, HepG-2; assay type: cell-based; conditions: Homo sapiens, HepG2; HepG-2 liver cancer cells; 48 h incubation; mean of three values; read-out: IC50 (mean±SD) HepG-2
From the text: as §1, §2

EGFR = EGFR (Homo sapiens, UniProt P00533); assay: In vitro EGFR inhibition assay (Kinase-Glo luminescence)
EGFR, sequence (P00533 25-1210): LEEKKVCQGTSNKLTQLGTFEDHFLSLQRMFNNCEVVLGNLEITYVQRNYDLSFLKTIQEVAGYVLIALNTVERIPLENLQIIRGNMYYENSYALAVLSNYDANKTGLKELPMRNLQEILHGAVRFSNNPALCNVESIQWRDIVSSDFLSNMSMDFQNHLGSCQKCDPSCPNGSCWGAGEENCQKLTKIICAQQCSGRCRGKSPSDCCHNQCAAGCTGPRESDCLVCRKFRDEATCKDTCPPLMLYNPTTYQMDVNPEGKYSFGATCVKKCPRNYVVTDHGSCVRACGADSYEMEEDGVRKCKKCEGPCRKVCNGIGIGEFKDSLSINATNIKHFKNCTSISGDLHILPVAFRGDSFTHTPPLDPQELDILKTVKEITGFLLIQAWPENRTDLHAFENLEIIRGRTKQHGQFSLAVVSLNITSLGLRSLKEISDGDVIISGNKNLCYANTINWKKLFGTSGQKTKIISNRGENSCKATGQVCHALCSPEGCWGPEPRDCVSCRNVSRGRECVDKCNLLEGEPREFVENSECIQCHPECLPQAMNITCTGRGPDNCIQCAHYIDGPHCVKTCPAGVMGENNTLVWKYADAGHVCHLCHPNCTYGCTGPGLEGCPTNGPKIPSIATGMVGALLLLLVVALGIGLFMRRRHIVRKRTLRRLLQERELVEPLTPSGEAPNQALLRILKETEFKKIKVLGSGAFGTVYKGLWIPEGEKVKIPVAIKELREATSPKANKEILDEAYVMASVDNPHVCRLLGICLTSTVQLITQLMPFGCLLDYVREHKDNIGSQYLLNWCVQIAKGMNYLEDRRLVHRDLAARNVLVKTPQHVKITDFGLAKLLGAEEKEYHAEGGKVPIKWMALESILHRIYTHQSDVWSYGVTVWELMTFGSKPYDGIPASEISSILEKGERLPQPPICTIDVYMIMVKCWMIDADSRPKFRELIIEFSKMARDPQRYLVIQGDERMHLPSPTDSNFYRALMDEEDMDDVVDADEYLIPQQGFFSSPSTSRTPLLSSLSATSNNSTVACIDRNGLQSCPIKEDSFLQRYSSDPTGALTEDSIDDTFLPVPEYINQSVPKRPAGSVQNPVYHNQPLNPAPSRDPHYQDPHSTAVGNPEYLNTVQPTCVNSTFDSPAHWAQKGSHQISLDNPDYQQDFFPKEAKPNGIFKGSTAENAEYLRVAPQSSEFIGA

VEGFR-2, sequence (P35968 20-1356): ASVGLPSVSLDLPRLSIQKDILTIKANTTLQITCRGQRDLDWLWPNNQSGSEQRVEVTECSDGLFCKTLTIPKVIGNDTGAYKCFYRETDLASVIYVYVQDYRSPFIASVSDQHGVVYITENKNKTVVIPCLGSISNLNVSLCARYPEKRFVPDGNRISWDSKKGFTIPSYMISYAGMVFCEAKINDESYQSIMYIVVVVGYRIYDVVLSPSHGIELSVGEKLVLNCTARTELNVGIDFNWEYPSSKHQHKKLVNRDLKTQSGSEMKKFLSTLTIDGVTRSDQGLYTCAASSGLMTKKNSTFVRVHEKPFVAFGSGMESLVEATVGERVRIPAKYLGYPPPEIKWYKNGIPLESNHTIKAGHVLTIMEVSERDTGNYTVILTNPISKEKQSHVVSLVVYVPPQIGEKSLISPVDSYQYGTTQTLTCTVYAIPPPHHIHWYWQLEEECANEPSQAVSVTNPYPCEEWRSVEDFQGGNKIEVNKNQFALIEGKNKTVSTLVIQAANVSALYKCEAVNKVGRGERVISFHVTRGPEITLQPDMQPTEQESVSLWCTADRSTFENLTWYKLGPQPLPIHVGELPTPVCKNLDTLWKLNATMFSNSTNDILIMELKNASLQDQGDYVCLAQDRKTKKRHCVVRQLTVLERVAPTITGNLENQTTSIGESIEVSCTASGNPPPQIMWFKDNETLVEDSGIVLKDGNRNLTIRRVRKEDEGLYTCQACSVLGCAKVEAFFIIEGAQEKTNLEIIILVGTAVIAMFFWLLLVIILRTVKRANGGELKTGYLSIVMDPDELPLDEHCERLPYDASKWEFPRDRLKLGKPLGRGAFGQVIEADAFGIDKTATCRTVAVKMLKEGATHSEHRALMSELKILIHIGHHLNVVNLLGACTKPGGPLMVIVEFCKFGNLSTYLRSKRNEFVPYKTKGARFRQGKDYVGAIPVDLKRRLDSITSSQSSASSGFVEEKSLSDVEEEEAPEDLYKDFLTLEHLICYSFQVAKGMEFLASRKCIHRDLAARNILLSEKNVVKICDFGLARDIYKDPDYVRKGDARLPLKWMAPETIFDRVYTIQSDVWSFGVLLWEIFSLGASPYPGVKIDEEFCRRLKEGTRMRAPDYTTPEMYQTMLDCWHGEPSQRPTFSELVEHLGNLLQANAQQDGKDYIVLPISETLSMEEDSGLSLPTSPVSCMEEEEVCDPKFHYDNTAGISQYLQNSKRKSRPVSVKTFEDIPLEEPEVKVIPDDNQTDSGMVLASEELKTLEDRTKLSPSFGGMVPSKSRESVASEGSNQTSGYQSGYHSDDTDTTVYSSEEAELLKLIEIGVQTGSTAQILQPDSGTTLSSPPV

## COc1ccc(Cc2nnc(COc3ncnc4ccccc34)o2)cc1OC [IV]
MCF-7 cell line [1]
  IC50: 0.23 µM

## Cn1c(SCc2cn([C@@H]3OC[C@@H](O)[C@H](O)[C@H]3O)nn2)nc2ccccc2c1=O [Compound 13, 2-(((1-[β-D-Xylopyranosyl]-1 H-1,2,3-triazol-4-yl)methyl)thio)-3-methylquinazolin-4(3 H)-one]
HCT-116 cell line
  IC50: 5.4 µM
MCF-7 cell line [2]
  IC50: 7.9 ± 0.3 µM
Bax; 24-hour treatment at 5.40 µM, control 4.53
  Bax/Bcl-2: 72.83
Bax; 24-hour treatment at IC50 5.40 µM, control 33.85
  Bax: 229.40 pg/mL and 229.40 ± 1.62 pg/mL
Bax; 24 h, 5.40 µM
  improvement in Bax values versus untreated control: 6.8 fold
HCT-116 cells [3]; DMSO control 0.14
  Apoptosis Late: 25.36%
HCT-116 cells [3]; DMSO control 0.55
  Apoptosis Early: 7.42%
HCT-116 cells [3]; DMSO control 1.35
  Necrosis: 3.53%
HCT-116 cells [4]
  stage of cell cycle arrest: G1 stage
HCT-116 cells [4]; 5.40 µM, 24-hour treatment (Table S2 title: 48 h), control 13.24
  %G2/M: 9.43%
HCT-116 cells [4]; 5.40 µM, 24-hour treatment (Table S2 title: 48 h), control 32.81
  %S: 22.46%
HCT-116 cells [4]; 5.40 µM, 24-hour treatment (Table S2 title: 48 h), control 53.95
  %G0-G1: 68.11%
VEGFR-2
  IC50: 3.2 ± 0.15 µM
p53; 24-hour treatment at IC50 5.40 µM, control 139.65
  P53: 885.72 pg/mL and 885.72 ± 1.49 pg/mL
p53; 24 h, 5.40 µM
  enhancement of p53 protein levels versus control: 6.3 times
BJ-1 normal cell line
  IC50: 23.5 ± 2.3 µM
Bcl-2; 24-hour treatment at IC50 5.40 µM, control 7.48
  Bcl-2: 3.15 ng/mL and 3.15 ± 0.22 ng/mL
Bcl-2; 24 h, 5.40 µM
  reduction of Bcl-2 protein levels versus control: ~2.4 times
HepG-2 cell line
  IC50: 18.2 ± 2.2 µM
EGFR
  IC50: 0.31 ± 0.06 µM
